Measurements: article PMC11982978, “Cancer hotspot mutations rewire ERK2 specificity by selective exclusion of docking interactions” (The Journal of Biological Chemistry, 2025)
Blank lines part the entries; values can stand above or below the molecule they belong to.

What was measured:
ERK2 WT = molecular target: T1, ERK2 WT (Mus musculus, UniProt P63085); assay: Competitive peptide kinase assay (D-peptide inhibition), ERK2 WT; type: biochemical; conditions: Table 2, 5 μM D-site dependent reporter peptide, 10 nM ERK2, 10 μM ATP, pH 7.4, fluorescence, mean of three independent replicates
T1 construct: His6; made in house; host or cells: E. coli BL21(DE3), co-expressed with GST-MEK1ΔN3
T1 sequence (P63085 whole entry): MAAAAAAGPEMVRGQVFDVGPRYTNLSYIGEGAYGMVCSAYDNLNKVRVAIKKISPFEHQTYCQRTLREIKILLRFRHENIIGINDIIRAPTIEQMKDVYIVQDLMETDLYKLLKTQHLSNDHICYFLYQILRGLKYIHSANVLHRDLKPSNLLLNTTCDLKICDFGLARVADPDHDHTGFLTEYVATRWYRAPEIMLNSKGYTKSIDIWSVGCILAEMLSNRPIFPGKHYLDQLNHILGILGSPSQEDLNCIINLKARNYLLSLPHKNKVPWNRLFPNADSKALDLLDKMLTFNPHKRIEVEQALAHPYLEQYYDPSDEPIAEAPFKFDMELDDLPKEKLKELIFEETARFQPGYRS
Method: (§5) We determined relative binding affinities for D-peptides from their potency as competitive inhibitors of WT or mutant ERK2 activity on a D-site-dependent reporter substrate peptide (Table S1, Fig. 3A, S3).
(§6) Competitive peptide kinase assays were performed with a D-site dependent MAPK reporter substrate peptide (AssayQuant Technologies Inc, #AQT0376) as we reported previously ([15]). Briefly, 5 μM of reporter peptide was mixed with various concentrations of D-peptides in reaction buffer (54 mM HEPES [pH 7.4], 1.2 mM DTT, 0.01% Brij-35, 1% glycerol, 0.2 mg/ml BSA, and 10 mM MgCl2). […] Phosphorylation of the reporter peptide was measured by fluorescence (λex 360 nm, λem 485 nm) in 90 s intervals over 21 min in a Spectra M5 plate reader. Rates were calculated from the linear portion of the reaction progress curve, and data were normalized to maximum (samples lacking competitor peptide) and minimum (control reactions lacking kinase) values. Normalized rates were plotted against D-peptide concentration and fitted into a sigmoidal dose-response curve to determine the IC50 values using GraphPad Prism (Version 9.3.0).

ERK2 E322K = molecular target: T2, ERK2 E322K (Mus musculus, UniProt P63085, E320K); assay: Competitive peptide kinase assay (D-peptide inhibition), ERK2 E322K; type: biochemical; conditions: Table 2, 5 μM reporter peptide, 10 nM ERK2, 10 μM ATP, mean of three independent replicates, read-out: IC50, ERK2 E322 K
T2 construct: His6; made in house; host or cells: E. coli BL21(DE3), co-expressed with GST-MEK1ΔN3
T2 sequence (P63085 whole entry E320K): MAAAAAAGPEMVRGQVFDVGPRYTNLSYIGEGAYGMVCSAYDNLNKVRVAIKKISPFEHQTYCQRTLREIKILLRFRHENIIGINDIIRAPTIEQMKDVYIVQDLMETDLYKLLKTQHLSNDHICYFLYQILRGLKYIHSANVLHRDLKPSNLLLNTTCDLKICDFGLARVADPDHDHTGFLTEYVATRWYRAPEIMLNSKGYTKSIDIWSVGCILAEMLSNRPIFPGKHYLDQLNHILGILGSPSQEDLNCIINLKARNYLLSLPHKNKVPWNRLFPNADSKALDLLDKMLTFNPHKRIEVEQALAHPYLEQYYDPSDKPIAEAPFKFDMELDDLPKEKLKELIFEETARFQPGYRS
Method: as §5, §6

WT ERK2 [1] = assay: Y2H D-site library screen, WT ERK2; type: cell-based, rat; set-up: key: ES = slope of ln(Ft/F0) vs number of yeast population doublings; conditions: mutant ES is the combined average ES from the D319N and E320K screens
Text: (§1) To examine how cancer-associated CD site mutations affect the scope of ERK2 docking interactions, we adopted a Y2H strategy that we previously applied to define the D-site interactome of WT ERK2 ([15]). This system reports on interactions between ERK2 and a fragment of its substrate ELK1 that harbors a docking site essential for binding (Fig. 1C). The system thus evaluates the binding of potential sequences by substituting them for the native ELK1 docking site. We transformed Y2H strains with a bait plasmid expressing the Gal4 DNA-binding domain (DBD) fused to WT or CD mutant forms of rat ERK2 (R133K, D319N or E320K, equivalent respectively to human R135K, D321N and E322K), along with a prey plasmid expressing Gal4 activation domain (AD) fused to the ELK1 fragment harboring various docking site sequences. We then assayed these strains for growth on solid media under non-selective (+His) and selective conditions (−His) to detect interactions (Fig. 1D).
(§2) We previously used the Y2H system to screen WT ERK2 against a pooled library of 11,756 ELK1 variants incorporating potential docking sites from the human proteome ([15]). To identify interacting sequences either gained or lost upon ERK2 CD site mutation, we screened the same library against ERK2^D319N and ERK2^E320K. Yeast expressing ERK2 mutant bait plasmids were transformed with the ELK1 library pool and subjected to competitive growth under selective (−His) and non-selective conditions (+His) in parallel. Cultures were sampled periodically over ∼7 population doublings. The DNA sequence encoding the variable docking site region was PCR amplified and analyzed by next-generation sequencing (Fig. 2A, Dataset S1). The change in sequence abundance over time was fitted to an exponential function to assign an enrichment score (ES) to each docking site, where a higher ES indicates a greater increase in sequence abundance as the population grows. A significant enrichment of docking site sequences was observed only under selective conditions (Figs. 2B, S1). For each mutant, we observed generally good reproducibility across three independently conducted screens albeit with some sequences enriched in only a single replicate (Fig. S2, A and B). Average ES scores for the E320K and D319N mutant screens were better correlated with each other (R = 0.83) than were average ES scores for either mutant compared to WT ERK2 (R = 0.67 for WT versus D319N, R = 0.63 for WT versus E320K) (Fig. S2C).
(§3) To compare sequences selected by CD mutants with those selected by WT ERK2, we defined those sequences with an ES equal to or higher than three standard deviations from the mean (Z > 3) as hits. Using this cutoff, we obtained 121, 127, and 153 hits sequences from the WT, D319N, and E320K screens, respectively (Fig. 2C, Dataset S2).
(§4) Yeast harboring pGBT9-ERK2^E320K or pGBT9-ERK2^D319N were transformed with the pGADGH-ELK1 D-site library plasmid pool. Transformants (10–40 colonies per library component) were suspended in SD-Leu-Trp media, diluted to an OD600 of 0.1, and cultured in a shaking incubator at 30 °C to an OD600 of 1.0. The resulting culture was used to initiate a competitive selection screen. Cell growth, sample collection and data analysis were performed exactly as described previously for WT ERK2 ([15]). The frequency (F) of each D-site sequence at a given time point (t) was calculated by dividing the number of reads by the total read count for all sequences. For each sequence, a plot of ln(Ft/F0) as a function of the number of yeast population doublings was fit to a line, and the enrichment score (ES) for that sequence was defined as the slope of this line. Illumina sequencing reads, calculated ES, and Z scores for each screen are provided in Dataset S1.

WT ERK2 [2] = conditions: selective conditions (-His); hits Z > 3; average of three screens; cited from earlier work
Text: Supplement mmc2.xlsx, sheet "WT Hits" | column: Z-score

ERK2 D319N = assay: Y2H D-site library screen, ERK2 D319N; type: cell-based, rat; set-up: key to ES, +His / ES, -His: ES = slope of ln(Ft/F0) vs number of yeast population doublings
Text: as §1, §2, §3, §4

ERK2 E320K = assay: Y2H D-site library screen, ERK2 E320K; type: cell-based, rat; set-up: key to ES, +His / ES, -His: ES = slope of ln(Ft/F0) vs number of yeast population doublings
Text: as §1, §2, §3, §4

[3] = Average of 3 Replicate Screens, non-selective
[4] = Average of 3 Replicate Screens, selective
[5] = Average of 3 Replicate Experiments, non-selective
[6] = Average of 3 Replicate Experiments, selective

IC50 (ERK2 WT): 41 µM
Molecule: CC[C@H](C)[C@H](NC(=O)[C@H](C)NC(=O)[C@@H](N)Cc1ccc(O)cc1)C(=O)N[C@@H](CCCNC(=N)N)C(=O)N[C@@H](C)C(=O)N[C@@H](CCCNC(=N)N)C(=O)N[C@@H](CCCNC(=N)N)C(=O)N[C@@H](CCC(N)=O)C(=O)N[C@@H](CC(C)C)C(=O)N1CCC[C@H]1C(=O)N[C@@H](CCCNC(=N)N)C(=O)N[C@@H](CC(C)C)C(=O)N[C@@H](C)C(=O)N[C@H](C(=O)N[C@@H](CO)C(=O)N[C@@H](CC(=O)O)C(=O)O)C(C)C [ISG20 peptide G6Q]

IC50 (ERK2 WT): 190 µM
Molecule: CC(C)C[C@H](NC(=O)[C@H](CCCNC(=N)N)NC(=O)[C@@H]1CCCN1C(=O)[C@H](CC(C)C)NC(=O)CNC(=O)[C@H](CCCNC(=N)N)NC(=O)[C@H](CCCNC(=N)N)NC(=O)[C@H](C)NC(=O)[C@H](CCCNC(=N)N)NC(=O)[C@H](CC(N)=O)NC(=O)[C@H](C)NC(=O)[C@@H](N)Cc1ccc(O)cc1)C(=O)N[C@@H](C)C(=O)N[C@H](C(=O)N[C@@H](CO)C(=O)N[C@@H](CC(=O)O)C(=O)O)C(C)C [ISG20 peptide I1N]

IC50 (ERK2 WT): 200 µM
Molecule: CC[C@H](C)[C@H](NC(=O)[C@H](CCCNC(=N)N)NC(=O)[C@H](C)NC(=O)[C@@H](N)Cc1ccc(O)cc1)C(=O)N[C@@H](C)C(=O)N[C@@H](CCCNC(=N)N)C(=O)N[C@@H](CCCNC(=N)N)C(=O)NCC(=O)N[C@@H](CC(C)C)C(=O)N1CCC[C@H]1C(=O)N[C@@H](CCCNC(=N)N)C(=O)N[C@@H](CC(C)C)C(=O)N[C@@H](C)C(=O)N[C@H](C(=O)N[C@@H](CO)C(=O)N[C@@H](CC(=O)O)C(=O)O)C(C)C [ISG20 peptide I1R/R2I]

IC50 (ERK2 E322K): 300 µM
Molecule: CC[C@H](C)[C@H](NC(=O)[C@H](C)NC(=O)[C@@H](N)Cc1ccc(O)cc1)C(=O)N[C@@H](CCCNC(=N)N)C(=O)N[C@@H](C)C(=O)N[C@@H](C)C(=O)N[C@@H](CCCNC(=N)N)C(=O)NCC(=O)N[C@@H](CC(C)C)C(=O)N1CCC[C@H]1C(=O)N[C@@H](CCCNC(=N)N)C(=O)N[C@@H](CC(C)C)C(=O)N[C@@H](C)C(=O)N[C@H](C(=O)N[C@@H](CO)C(=O)N[C@@H](CC(=O)O)C(=O)O)C(C)C [ISG20 peptide R4A]

IC50 (ERK2 E322K): 400 µM
Molecule: CC[C@H](C)[C@H](NC(=O)[C@H](C)NC(=O)[C@@H](N)Cc1ccc(O)cc1)C(=O)N[C@@H](CCCNC(=N)N)C(=O)N[C@@H](C)C(=O)N[C@@H](CCCNC(=N)N)C(=O)N[C@@H](C)C(=O)NCC(=O)N[C@@H](CC(C)C)C(=O)N1CCC[C@H]1C(=O)N[C@@H](CCCNC(=N)N)C(=O)N[C@@H](CC(C)C)C(=O)N[C@@H](C)C(=O)N[C@H](C(=O)N[C@@H](CO)C(=O)N[C@@H](CC(=O)O)C(=O)O)C(C)C [ISG20 peptide R5A]

Molecule: CLSWKRMAGIFFLP [GLB1L3, D-site 14-mer in ELK1 Y2H prey]
WT ES - mutant ES (WT ERK2 [1]): 0.781
Z-score (ES) of hit sequences, WT ERK2 Y2H screen (WT ERK2 [2]): 14.12

Molecule: GSRCARIFRLVLQK [POLR3C, D-site 14-mer in ELK1 Y2H prey]
WT ES - mutant ES (WT ERK2 [1]): 0.285
Z-score (ES) of hit sequences, WT ERK2 Y2H screen (WT ERK2 [2]): 6.39

Molecule: GTRQVKNKGVIVKK [MEIKIN, D-site 14-mer in ELK1 Y2H prey]
ES, +His (ERK2 D319N; [3]): -0.02174
Z-Score, +His (ERK2 D319N; [3]): -0.8853
ES, -His (ERK2 D319N; [4]): -0.1312
Z-Score, -His (ERK2 D319N; [4]): -0.1438
ES, +His (ERK2 D319N; Experiment 1, non-selective): -0.02593
ES, -His (ERK2 D319N; Experiment 1, selective): -0.1282
ES, +His (ERK2 D319N; Experiment 2, non-selective): -0.03529
ES, -His (ERK2 D319N; Experiment 2, selective): -0.1336
ES, +His (ERK2 D319N; Experiment 3, non-selective): -0.004005
ES, -His (ERK2 D319N; Experiment 3, selective): -0.1318
ES, +His (ERK2 E320K; [5]): -0.01644
Z-Score, +His (ERK2 E320K; [5]): -0.6905
ES, -His (ERK2 E320K; [6]): -0.1045
Z-Score, -His (ERK2 E320K; [6]): 0.2622
ES, +His (ERK2 E320K; Experiment 1, non-selective): 0.02832
ES, -His (ERK2 E320K; Experiment 1, selective): -0.1559
ES, +His (ERK2 E320K; Experiment 2, non-selective): -0.03889
ES, -His (ERK2 E320K; Experiment 2, selective): -0.03551
ES, +His (ERK2 E320K; Experiment 3, non-selective): -0.03876
ES, -His (ERK2 E320K; Experiment 3, selective): -0.1222

Molecule: HLSRHKIIHIGIHT [ZNF493, D-site 14-mer in ELK1 Y2H prey]
WT ES - mutant ES (WT ERK2 [1]): 0.221
Z-score (ES) of hit sequences, WT ERK2 Y2H screen (WT ERK2 [2]): 5.90

Molecule: ILLRRSLEAIELGL [KLC2, D-site 14-mer in ELK1 Y2H prey]
WT ES - mutant ES (WT ERK2 [1]): 0.282
Z-score (ES) of hit sequences, WT ERK2 Y2H screen (WT ERK2 [2]): 5.90

Molecule: IRARRGLPRLAVSD [ISG20, D-site 14-mer in ELK1 Y2H prey]
WT ES - mutant ES (WT ERK2 [1]): 0.761
Z-score (ES) of hit sequences, WT ERK2 Y2H screen (WT ERK2 [2]): 14.42
